From PMC9950431, “A bivalent remipede toxin promotes calcium release via ryanodine receptor activation” (Nature Communications, 2023)

Experiments:
CaV1.3 = assay: FLIPR Ca2+ assay, inhibition of endogenous CaV1.3; type: cell-based, human; conditions: for Ca2+ response relative to control response: 3 µM Xt3a pre-treatment, KCl 90 mM/CaCl2 5 mM, over 300 s
Protocol: (§1) SH-SY5Y human neuroblastoma cells (European Collection of Authenticated Cell Culture, Sigma Aldrich, 94030304-1VL) were cultured in RPMI media (ThermoFisher Scientific, Scoresby, Australia) supplemented with 15% foetal bovine serum and L-glutamine (1 mM) and passaged at approximately 80% confluency with TrypLE Express (Thermo Fisher, Australia). For fluorescence imaging, cells were plated on CellBIND (Corning) 384-well black-walled imaging plates at a density of 20,000–30,000 cells/well in complete media and cultured for 48 h at 37 °C/5% CO2.
(§2) Briefly, SH-SY5Y cells were loaded with Calcium 4 no-wash dye (Molecular Devices) diluted in physiological salt solution (composition in mM: NaCl 140, D-glucose 11.5, KCl 5.9, MgCl2 1.4, NaH2PO4 1.2, NaHCO3 5, CaCl2 1.8, HEPES 10) for 30 min at 37 °C. A two-addition FLIPR^Tetra (Molecular Devices) protocol using the following settings was used to measure fluorescence responses: excitation 470–495 nm; emission 515–575 nm; excitation intensity 80%; excitation duration 0.8 s; gain 140; read interval 1/s; read number 300/addition. Responses mediated via endogenously expressed ion channels were elicited by addition of: choline (30 μM)/PNU-120596 (10 μM) for α7 nAChR-mediated responses; nicotine (30 μM) for α3β2/α3β4 nAChR-mediated responses; KCl (90 mM)/CaCl2 (5 mM) for CaV1.3-mediated responses; KCl (90 mM)/CaCl2 (5 mM) + nifedipine (10 μM) for CaV2.2-mediated responses; vertridine (70 μM) for NaV1.2-mediated responses; and veratridine (4 μM)/OD1 (300 nM) for NaV1.7-mediated responses. Raw fluorescence readings were converted to response over baseline using the analysis tool Screenworks 3.1.1.4 (Molecular Devices) and were expressed relative to the maximum increase in fluorescence of control responses and plotted using GraphPad Prism 9.3.1.
(§3) In the cell-based FLIPR assays statistical analysis was performed using GraphPad Prism 9.3.1. Statistical significance was defined as p < 0.05, and determined by one-sample t-test assessing difference to the control value of 100%. In α7 nAChR, α3-containing nAChR, CaV1.3, CaV2.2, NaV1.2 and NaV1.7 channels (Supplementary Fig. 5B), with distribution (t) and degrees of freedom (df) being: t = 0.9683, df = 2 (α7); t = 1.338, df = 2 (α3); t = 1.775, df = 2 (NaV1.2); t = 1.478

CaV2.2 = assay: FLIPR Ca2+ assay, inhibition of endogenous CaV2.2; type: cell-based, human; conditions: for Ca2+ response relative to control response: 3 µM Xt3a pre-treatment, KCl 90 mM/CaCl2 5 mM + nifedipine 10 μM, over 300 s
Protocol: as §1, §2, §3

NaV1.7 = assay: FLIPR Ca2+ assay, inhibition of endogenous NaV1.7; type: cell-based, human; conditions: for Ca2+ response relative to control response: 3 µM Xt3a pre-treatment, veratridine 4 μM/OD1 300 nM, over 300 s
Protocol: as §1, §2, §3

ryanodine receptor = biological target: T1, ryanodine receptor (Oryctolagus cuniculus, UniProt P11716); assay: Single channel recording, washout (Woearly, Wolate) after Xt3a, sheet "Figure 3B" (RyR isoform not given); type: biochemical
T1 construct: skeletal SR vesicles were isolated from the back and leg muscles of mature female New Zealand white rabbits; from tissue; host or cells: rabbit back and leg skeletal muscle, sarcoplasmic reticulum vesicles
Source text: Supplement 41467_2023_36579_MOESM6_ESM.xlsx, sheet "Figure 3B" | column: Woearly; Wolate

T1 sequence (P11716 whole entry, canonical isoform): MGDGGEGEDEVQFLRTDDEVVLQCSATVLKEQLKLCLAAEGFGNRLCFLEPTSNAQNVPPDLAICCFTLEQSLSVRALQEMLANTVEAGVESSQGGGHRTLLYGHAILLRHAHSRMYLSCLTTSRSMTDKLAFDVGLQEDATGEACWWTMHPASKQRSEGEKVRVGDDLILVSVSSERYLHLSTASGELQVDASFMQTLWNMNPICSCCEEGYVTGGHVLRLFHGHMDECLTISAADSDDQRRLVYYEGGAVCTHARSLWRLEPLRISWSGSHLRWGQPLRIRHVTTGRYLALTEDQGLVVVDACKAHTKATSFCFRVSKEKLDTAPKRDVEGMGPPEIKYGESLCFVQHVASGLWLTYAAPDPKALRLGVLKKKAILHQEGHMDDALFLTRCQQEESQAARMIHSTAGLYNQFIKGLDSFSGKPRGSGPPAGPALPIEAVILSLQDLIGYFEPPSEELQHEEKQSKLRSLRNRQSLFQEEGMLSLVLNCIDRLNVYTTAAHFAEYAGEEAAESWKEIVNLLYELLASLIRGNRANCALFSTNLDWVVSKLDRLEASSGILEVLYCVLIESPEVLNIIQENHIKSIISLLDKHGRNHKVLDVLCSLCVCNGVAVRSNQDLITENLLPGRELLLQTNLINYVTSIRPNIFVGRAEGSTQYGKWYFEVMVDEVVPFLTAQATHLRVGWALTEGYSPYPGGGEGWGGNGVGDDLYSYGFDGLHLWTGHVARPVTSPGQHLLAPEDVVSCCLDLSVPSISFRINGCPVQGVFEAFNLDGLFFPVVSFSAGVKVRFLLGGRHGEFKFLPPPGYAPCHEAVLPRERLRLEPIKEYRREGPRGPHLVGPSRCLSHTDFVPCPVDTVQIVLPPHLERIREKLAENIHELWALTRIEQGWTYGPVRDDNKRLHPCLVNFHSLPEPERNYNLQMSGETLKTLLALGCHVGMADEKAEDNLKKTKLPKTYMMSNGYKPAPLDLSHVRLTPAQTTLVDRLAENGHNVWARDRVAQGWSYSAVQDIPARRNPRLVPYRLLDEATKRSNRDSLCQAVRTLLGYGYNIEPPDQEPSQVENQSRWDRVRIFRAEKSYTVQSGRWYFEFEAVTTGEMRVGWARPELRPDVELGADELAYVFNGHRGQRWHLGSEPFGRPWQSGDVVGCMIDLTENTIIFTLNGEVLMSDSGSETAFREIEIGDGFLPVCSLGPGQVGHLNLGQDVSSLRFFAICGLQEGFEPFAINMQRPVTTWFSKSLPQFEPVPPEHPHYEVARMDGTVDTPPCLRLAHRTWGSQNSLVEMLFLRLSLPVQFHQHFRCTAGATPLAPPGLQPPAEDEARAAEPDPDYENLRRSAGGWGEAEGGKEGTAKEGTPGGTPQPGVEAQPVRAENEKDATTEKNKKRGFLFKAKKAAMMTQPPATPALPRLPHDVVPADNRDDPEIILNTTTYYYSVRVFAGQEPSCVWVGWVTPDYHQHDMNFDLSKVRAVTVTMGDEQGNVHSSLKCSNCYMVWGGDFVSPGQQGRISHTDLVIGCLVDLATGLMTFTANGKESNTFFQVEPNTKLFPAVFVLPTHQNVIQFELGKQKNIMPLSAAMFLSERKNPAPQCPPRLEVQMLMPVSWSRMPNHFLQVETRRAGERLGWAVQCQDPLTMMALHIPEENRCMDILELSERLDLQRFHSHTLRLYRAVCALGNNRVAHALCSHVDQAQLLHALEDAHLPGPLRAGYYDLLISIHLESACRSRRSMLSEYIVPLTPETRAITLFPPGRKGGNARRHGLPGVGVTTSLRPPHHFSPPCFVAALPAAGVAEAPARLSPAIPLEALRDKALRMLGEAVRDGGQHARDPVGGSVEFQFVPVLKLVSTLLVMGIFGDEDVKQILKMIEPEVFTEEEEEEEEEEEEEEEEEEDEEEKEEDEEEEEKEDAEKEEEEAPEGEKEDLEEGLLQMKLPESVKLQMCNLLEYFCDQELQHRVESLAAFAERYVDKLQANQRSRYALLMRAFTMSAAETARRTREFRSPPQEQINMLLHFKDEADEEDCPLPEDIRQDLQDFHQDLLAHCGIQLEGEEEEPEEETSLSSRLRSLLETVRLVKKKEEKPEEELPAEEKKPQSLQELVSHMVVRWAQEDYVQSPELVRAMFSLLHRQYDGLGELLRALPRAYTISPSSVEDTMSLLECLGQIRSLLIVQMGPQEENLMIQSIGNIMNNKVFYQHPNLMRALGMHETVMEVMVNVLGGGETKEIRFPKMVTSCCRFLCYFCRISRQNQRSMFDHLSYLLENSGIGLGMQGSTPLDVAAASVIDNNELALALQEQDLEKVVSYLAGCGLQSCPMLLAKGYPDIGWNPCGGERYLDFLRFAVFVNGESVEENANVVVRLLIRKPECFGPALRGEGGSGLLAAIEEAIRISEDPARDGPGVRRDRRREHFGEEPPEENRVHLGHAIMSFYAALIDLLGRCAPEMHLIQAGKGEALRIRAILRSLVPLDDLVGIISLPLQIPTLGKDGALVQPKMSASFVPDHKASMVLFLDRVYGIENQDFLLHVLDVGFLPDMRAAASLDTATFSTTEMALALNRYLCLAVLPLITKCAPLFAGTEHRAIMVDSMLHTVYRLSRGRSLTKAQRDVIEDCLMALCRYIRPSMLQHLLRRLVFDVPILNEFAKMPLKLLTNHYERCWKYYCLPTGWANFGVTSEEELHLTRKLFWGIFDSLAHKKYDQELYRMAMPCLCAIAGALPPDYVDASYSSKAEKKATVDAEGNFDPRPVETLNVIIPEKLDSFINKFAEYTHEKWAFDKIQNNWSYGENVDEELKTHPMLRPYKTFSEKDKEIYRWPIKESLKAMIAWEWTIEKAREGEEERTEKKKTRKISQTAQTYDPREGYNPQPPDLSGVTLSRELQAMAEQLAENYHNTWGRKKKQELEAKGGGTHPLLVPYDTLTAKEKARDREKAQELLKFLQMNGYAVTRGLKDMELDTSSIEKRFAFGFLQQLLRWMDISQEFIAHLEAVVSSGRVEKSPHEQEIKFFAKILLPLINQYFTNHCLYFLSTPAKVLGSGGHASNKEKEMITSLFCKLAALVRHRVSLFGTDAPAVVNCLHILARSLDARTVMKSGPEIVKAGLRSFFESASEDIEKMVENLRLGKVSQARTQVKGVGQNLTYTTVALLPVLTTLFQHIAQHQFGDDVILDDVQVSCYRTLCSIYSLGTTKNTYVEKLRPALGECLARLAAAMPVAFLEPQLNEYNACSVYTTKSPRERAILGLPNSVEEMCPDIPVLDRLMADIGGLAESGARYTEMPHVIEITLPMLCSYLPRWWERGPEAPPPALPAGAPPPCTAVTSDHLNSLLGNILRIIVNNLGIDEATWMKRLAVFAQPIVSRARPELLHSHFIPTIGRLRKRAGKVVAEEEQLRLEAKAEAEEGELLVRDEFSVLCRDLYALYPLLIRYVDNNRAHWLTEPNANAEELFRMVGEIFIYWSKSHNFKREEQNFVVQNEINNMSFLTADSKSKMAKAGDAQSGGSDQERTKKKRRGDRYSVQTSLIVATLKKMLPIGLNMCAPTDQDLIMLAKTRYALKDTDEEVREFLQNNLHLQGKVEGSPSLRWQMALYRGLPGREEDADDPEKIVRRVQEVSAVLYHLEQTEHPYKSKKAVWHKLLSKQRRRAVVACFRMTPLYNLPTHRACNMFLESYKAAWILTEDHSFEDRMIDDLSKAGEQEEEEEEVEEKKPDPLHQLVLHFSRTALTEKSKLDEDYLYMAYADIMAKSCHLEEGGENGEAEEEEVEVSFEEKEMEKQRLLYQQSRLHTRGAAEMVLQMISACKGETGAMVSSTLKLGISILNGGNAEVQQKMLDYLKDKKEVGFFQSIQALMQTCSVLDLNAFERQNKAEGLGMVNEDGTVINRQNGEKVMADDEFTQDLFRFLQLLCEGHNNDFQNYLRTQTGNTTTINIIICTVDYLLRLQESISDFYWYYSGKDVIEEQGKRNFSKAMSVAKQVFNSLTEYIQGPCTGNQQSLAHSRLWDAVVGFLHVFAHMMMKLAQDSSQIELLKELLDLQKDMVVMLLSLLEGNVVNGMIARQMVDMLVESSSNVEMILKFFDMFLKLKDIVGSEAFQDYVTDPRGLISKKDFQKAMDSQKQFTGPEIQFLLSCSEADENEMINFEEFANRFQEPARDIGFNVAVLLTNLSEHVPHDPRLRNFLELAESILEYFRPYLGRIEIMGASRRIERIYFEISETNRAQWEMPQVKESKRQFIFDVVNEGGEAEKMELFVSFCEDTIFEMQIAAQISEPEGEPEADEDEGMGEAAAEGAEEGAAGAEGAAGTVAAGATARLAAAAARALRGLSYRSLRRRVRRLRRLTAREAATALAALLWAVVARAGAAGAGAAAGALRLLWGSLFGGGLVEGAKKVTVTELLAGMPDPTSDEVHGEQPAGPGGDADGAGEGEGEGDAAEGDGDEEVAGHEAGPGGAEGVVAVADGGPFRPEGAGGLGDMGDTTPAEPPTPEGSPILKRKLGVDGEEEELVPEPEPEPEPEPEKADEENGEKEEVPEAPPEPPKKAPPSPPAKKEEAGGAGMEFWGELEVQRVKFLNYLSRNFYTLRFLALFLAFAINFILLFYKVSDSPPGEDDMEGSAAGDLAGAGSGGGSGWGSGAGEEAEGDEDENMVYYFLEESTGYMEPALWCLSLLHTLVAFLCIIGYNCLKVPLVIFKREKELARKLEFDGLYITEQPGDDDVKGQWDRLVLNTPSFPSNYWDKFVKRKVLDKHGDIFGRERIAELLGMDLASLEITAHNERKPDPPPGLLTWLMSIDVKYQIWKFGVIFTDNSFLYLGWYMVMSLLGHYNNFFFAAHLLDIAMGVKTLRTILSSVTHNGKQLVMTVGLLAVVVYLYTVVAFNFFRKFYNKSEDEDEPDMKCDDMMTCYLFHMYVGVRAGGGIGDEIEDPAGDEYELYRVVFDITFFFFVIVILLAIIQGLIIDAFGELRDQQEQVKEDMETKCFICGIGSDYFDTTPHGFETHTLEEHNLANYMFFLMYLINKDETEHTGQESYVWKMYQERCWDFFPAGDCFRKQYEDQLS

φ-Xibalbin3-Xt3a
Ca2+ response relative to control response (CaV1.3; replicate 1): 100.265%
Ca2+ response relative to control response (CaV1.3; replicate 2): 98.0302%
Ca2+ response relative to control response (CaV1.3; replicate 3): 95.1795%
inhibition of Ca2+ responses (CaV1.3; Xt3a 3 µM): did not inhibit Ca^2+ responses
Ca2+ response relative to control response (CaV2.2; replicate 1): 99.2207%
Ca2+ response relative to control response (CaV2.2; replicate 2): 92.2928%
Ca2+ response relative to control response (CaV2.2; replicate 3): 79.9392%
inhibition of Ca2+ responses (CaV2.2; Xt3a 3 µM): did not inhibit Ca^2+ responses
Ca2+ response relative to control response (NaV1.7; replicate 1): 99.4493%
Ca2+ response relative to control response (NaV1.7; replicate 2): 100.583%
Ca2+ response relative to control response (NaV1.7; replicate 3): 102.164%
inhibition of Ca2+ responses (NaV1.7; Xt3a 3 µM): did not inhibit Ca^2+ responses
rel Po (ryanodine receptor; Woearly after 10nM Xt3a vs 1 micoM Ca, CT1124n): 1.432
rel Po (ryanodine receptor; Woearly after 10nM Xt3a vs 1 micoM Ca, CT1124p): 0.937
rel Po (ryanodine receptor; Woearly after 10nM Xt3a vs 1 micoM Ca, CT1125p (r7)): 0.4348
rel Po (ryanodine receptor; Woearly after 10nM Xt3a vs 1 micoM Ca, CT1125p (r12)): 0.3976
rel Po (ryanodine receptor; Woearly after 10nM Xt3a vs 1 micoM Ca, CT1126n): 1.917
rel Po (ryanodine receptor; Woearly after 10nM Xt3a vs 1 micoM Ca, CT1126p): 0.1557
rel Po (ryanodine receptor; Woearly after 10nM Xt3a vs 1 micoM Ca, CT1129p): 0.23
rel Po (ryanodine receptor; Woearly after 10nM Xt3a vs 1 micoM Ca, mean of 7 records): 0.7864
rel Po (ryanodine receptor; Woearly after 1 microM Xt3a vs 1 micoM Ca, CT1134 n): 4.4537
rel Po (ryanodine receptor; Woearly after 1 microM Xt3a vs 1 micoM Ca, CT1134 p): 3.797
rel Po (ryanodine receptor; Woearly after 1 microM Xt3a vs 1 micoM Ca, CT1135 n): 34.6466
rel Po (ryanodine receptor; Woearly after 1 microM Xt3a vs 1 micoM Ca, CT1136 n): 1.926
rel Po (ryanodine receptor; Woearly after 1 microM Xt3a vs 1 micoM Ca, CT1136 p): 1.125
rel Po (ryanodine receptor; Woearly after 1 microM Xt3a vs 1 micoM Ca, CT1137 n): 1.615
rel Po (ryanodine receptor; Woearly after 1 microM Xt3a vs 1 micoM Ca, CT1137p): 7.5
rel Po (ryanodine receptor; Woearly after 1 microM Xt3a vs 1 micoM Ca, CT1138n): 1
rel Po (ryanodine receptor; Woearly after 1 microM Xt3a vs 1 micoM Ca, CT1138p): 8.033
rel Po (ryanodine receptor; Woearly after 1 microM Xt3a vs 1 micoM Ca, mean (CT1135 p cell empty)): 7.122
rel Po (ryanodine receptor; Wolate after 10nM Xt3a vs 1 micoM Ca, CT1124n): 0.8317
rel Po (ryanodine receptor; Wolate after 10nM Xt3a vs 1 micoM Ca, CT1124p): 12.1926
rel Po (ryanodine receptor; Wolate after 10nM Xt3a vs 1 micoM Ca, CT1125p (r7)): 0.7826
rel Po (ryanodine receptor; Wolate after 10nM Xt3a vs 1 micoM Ca, CT1125p (r12)): 0.9398
rel Po (ryanodine receptor; Wolate after 10nM Xt3a vs 1 micoM Ca, CT1126n): 0.9549
rel Po (ryanodine receptor; Wolate after 10nM Xt3a vs 1 micoM Ca, CT1126p): 1.131
rel Po (ryanodine receptor; Wolate after 10nM Xt3a vs 1 micoM Ca, CT1129p): 0.13
rel Po (ryanodine receptor; Wolate after 10nM Xt3a vs 1 micoM Ca, mean of 7 records): 2.423
rel Po (ryanodine receptor; Wolate after 1 microM Xt3a vs 1 micoM Ca, CT1134 n): 20.9074
rel Po (ryanodine receptor; Wolate after 1 microM Xt3a vs 1 micoM Ca, CT1134 p): 6.491
rel Po (ryanodine receptor; Wolate after 1 microM Xt3a vs 1 micoM Ca, CT1135 n): 34.2069
rel Po (ryanodine receptor; Wolate after 1 microM Xt3a vs 1 micoM Ca, CT1135 p): 0.02609
rel Po (ryanodine receptor; Wolate after 1 microM Xt3a vs 1 micoM Ca, CT1136 n): 4.7037
rel Po (ryanodine receptor; Wolate after 1 microM Xt3a vs 1 micoM Ca, CT1136 p): 2
rel Po (ryanodine receptor; Wolate after 1 microM Xt3a vs 1 micoM Ca, CT1137 n): 0.6923
rel Po (ryanodine receptor; Wolate after 1 microM Xt3a vs 1 micoM Ca, CT1137p): 0.75
rel Po (ryanodine receptor; Wolate after 1 microM Xt3a vs 1 micoM Ca, CT1138n): 2.952
rel Po (ryanodine receptor; Wolate after 1 microM Xt3a vs 1 micoM Ca, CT1138p): 2.133
rel Po (ryanodine receptor; Wolate after 1 microM Xt3a vs 1 micoM Ca, mean of 10 records): 7.486
